Publication PMC12096346, “Disposable Face Masks for Noninvasive Drug Detection: A Proof-of-Concept Study with Cough Syrup Constituents” (Analytical Chemistry, 2025)
Like-named read-outs stand apart in the source and are kept apart here.

Legend:
clinical = details: both, human, in vivo, po
[1] = PubChem, cited from earlier work
[2] = both, human, in vivo, po
[3] = reported in the literature, ref numbers not given; cited from earlier work
[4] = Comparative urine analysis after ingesting cough syrup (LC-MS/MS, creatinine-normalized); type: in vivo, humans; details: 15 mL cough syrup oral; for k el / MRT / Tmax / half-life: human, in vivo; for MRT: reciprocal of kel; for Tmax: seven volunteers; for half-life: time from Cmax to half of Cmax
[5] = Drug clearance study by breathing through face masks (exhaled breath, LC-MS/MS); details: for MRT / Tmax / half-life / k el: both, human, in vivo, po, 15 mL
[6] = exhaled breath, 15 mL cough syrup oral

Compound	MRT (clinical)	Tmax (clinical)	k el (clinical)	pKa [1]	pKa ([1]; listed as Clp)	detection window [2]	half-life (clinical)	plasma t1/2 [3]	detection window [4]	k el [4]	MRT [4]	Tmax [4]	half-life [4]	MRT [5]	Tmax [5]	half-life [5]	k el [5]	detection window [5, 6]	Cmax in exhaled breath [5, 6]
CN(C)CCC(c1ccc(Cl)cc1)c1ccccn1 (stereo not shown) [Chlorpheniramine]	34.2 ± 4.6 h	13.1 ± 5 h	8.33e-06 s⁻¹	9.5^36	~9.5	–	–	–	–	–	–	–	–	–	–	–	–	–	–
COc1ccccc1OCC(O)CO (stereo not shown) [Guaifenesin]	4.8 ± 4.2 h	0.9 ± 0.2 h	0.000111 s⁻¹	–	–	65.1 ± 18.1 h	2.1 ± 0.9 h	~1 h	–	–	–	–	–	–	–	–	–	–	–
COc1ccc2c3c1O[C@H]1[C@@H](O)C=C[C@H]4[C@@H](C2)N(C)CC[C@@]341 [Codeine]	–	–	–	–	–	–	–	2 to 3 h	68.2 ± 8.3 h	8.33e-05 s⁻¹	4.6 ± 2.1 h	2.1 ± 1.3 h	3.3 ± 0.7 h	3.9 ± 0.8 h	1.9 ± 1 h	2.9 ± 0.8 h	8.33e-05 s⁻¹	61.3 ± 12.7 h	–
CN[C@@H](C)[C@H](O)c1ccccc1 [Ephedrine]	–	–	–	–	–	–	–	approximately 6 h	79.9 ± 11.4 h	2.78e-05 s⁻¹	10.4 ± 3.3 h	2.7 ± 1.8 h	6.2 ± 0.6 h	14.5 ± 4.1 h	6.9 ± 1.1 h	10 ± 2.8 h	2.78e-05 s⁻¹	92.6 ± 9.1 h	10.8 ± 1.6 ng/m^3
